Results as given in patent publication US7550603B2, “1H-benzimidazole-4-carboxamides substituted with a quaternary carbon at the 2-position are potent PARP inhibitors” (Abbott Laboratories Inc., priority 2005, dated 2009).
Like-named read-outs stand apart in the source and are kept apart here. Marks after values point to notes of the source that are not given here.

Tests used:
Female BALB/c mice = experiment: Deaths following lipopolysaccharide (LPS) challenge; type: in vivo; conditions: 20 mg/kg LPS intravenous, monitored 72 hours
Experimental: Female BALB/c mice were dosed orally, twice a day with vehicle (0.2% HPMC), or drug at 30 mg/kg/day or 100 mg/kg/day. The mice were injected intravenous with 20 mg/kg LPS at 30 minutes after the first treatment dose. They were monitored for survival for 72 hours or until 80-90% lethality was observed.

[1] = tested on: peritoneum following zymosan challenge; conditions: peritoneal lavage four hours post zymosan (2 mg/animal)
Experimental: Compounds were administered orally before an intraperitoneal zymosan injection (2 mg/animal).

[2] = biological target: Recombinant Human Poly(ADP-Ribose) Polymerase (PARP) (Homo sapiens, UniProt P09874); experiment: Inhibition of PARP (PARP1 assay, [3H]-NAD+ / biotinylated histone H1, FlashPlate); conditions: read-out: PARP Inhibition Ki; Table 1; quaternary and non-quaternary compounds
Chain of Recombinant Human Poly(ADP-Ribose) Polymerase (PARP) (P09874 whole entry): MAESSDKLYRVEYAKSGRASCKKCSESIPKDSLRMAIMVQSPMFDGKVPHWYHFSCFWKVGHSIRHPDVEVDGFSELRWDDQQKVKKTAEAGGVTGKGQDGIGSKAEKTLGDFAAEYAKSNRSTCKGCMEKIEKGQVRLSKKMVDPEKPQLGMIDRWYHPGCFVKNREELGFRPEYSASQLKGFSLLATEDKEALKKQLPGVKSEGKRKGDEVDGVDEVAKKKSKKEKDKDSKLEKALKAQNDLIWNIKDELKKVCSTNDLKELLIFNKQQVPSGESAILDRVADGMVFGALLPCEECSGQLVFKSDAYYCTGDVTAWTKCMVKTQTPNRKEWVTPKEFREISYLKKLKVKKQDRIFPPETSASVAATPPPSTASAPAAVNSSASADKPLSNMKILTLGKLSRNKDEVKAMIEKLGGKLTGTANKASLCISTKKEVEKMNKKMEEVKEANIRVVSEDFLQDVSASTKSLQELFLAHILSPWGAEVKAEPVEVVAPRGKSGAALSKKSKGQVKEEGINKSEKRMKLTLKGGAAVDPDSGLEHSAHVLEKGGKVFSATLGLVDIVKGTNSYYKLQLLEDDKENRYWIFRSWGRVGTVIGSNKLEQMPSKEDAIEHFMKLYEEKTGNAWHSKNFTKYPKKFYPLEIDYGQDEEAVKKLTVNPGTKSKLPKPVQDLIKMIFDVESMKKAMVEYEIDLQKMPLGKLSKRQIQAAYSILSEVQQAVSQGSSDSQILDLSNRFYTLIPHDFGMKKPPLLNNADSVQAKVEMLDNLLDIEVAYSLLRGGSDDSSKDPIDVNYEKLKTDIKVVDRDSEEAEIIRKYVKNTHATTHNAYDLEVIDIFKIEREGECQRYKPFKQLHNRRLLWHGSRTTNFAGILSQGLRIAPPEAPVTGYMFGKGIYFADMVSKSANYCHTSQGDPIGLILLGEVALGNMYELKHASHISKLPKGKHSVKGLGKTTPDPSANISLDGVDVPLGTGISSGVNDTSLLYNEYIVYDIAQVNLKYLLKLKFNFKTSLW
Experimental: Nicotinamide[2,5′,8-3H]adenine dinucleotide and strepavidin SPA beads were purchased from Amersham Biosiences (UK) Recombinant Human Poly(ADP-Ribose) Polymerase (PARP) purified from E. coli and 6-Biotin-17-NAD^+, were purchase from Trevigen, Gaithersburg, Md. NAD^+, Histone, aminobenzamide, 3-amino benzamide and Calf Thymus DNA (dcDNA) were purchased from Sigma, St. Louis, Mo. Stem loop oligonucleotide containing MCAT sequence was obtained from Qiagen. The oligos were dissolved to 1 mM in annealing buffer containing 10 mM Tris HCl pH 7.5, 1 mM EDTA, and 50 mM NaCl, incubated for 5 min at 95° C., and followed by annealing at 45° C. for 45 minutes. […] Biotinylated histone H1 was prepared by treating the protein with Sulfo-NHS-LC-Biotin from Pierce Rockford, Ill. The biotinylation reaction was conducted by slowly and intermittently adding 3 equivalents of 10 mM Sulfo-NHS-LC-Biotin to 100 μM Histone H1 in phosphate-buffered saline, pH 7.5, at 4° C. with gentle vortexing over 1 min followed by subsequent 4° C. incubation for 1 hr. Streptavidin coated (FlashPlate Plus) microplates were purchased from Perkin Elmer, Boston, Mass.
PARP1 assay was conducted in PARP assay buffer containing 50 mM Tris pH 8.0, 1 mM DTT, 4 mM MgCl2. […] Auto reactions utilizing SPA bead-based detection were carried out in 100 μl volumes in white 96 well plates.

[3] = 30 mg/kg/day orally twice a day
[4] = 100 mg/kg/day orally twice a day

Compound	Deaths following LPS challenge (lethality) (Female BALB/c mice; [3])	Deaths following LPS challenge (lethality) (Female BALB/c mice; [4])	Percent decrease in Cell Influx relative to control ([1]; 30 mg/kg orally)	Percent decrease in IL-1 level relative to control ([1]; 30 mg/kg orally)	Percent decrease in Cell Influx relative to control ([1]; 100 mg/kg orally)	Percent decrease in IL-1 level relative to control ([1]; 100 mg/kg orally)	Ki [2]
CCCN1CCC(c2nc3c(C(N)=O)cccc3[nH]2)CC1 [2-(1-propylpiperidin-4-yl)-1H-benzimidazole-4-carboxamide]	8/10	9/10	0%	32%	23%	47%*	–
C[C@@]1(c2nc3c(C(N)=O)cccc3[nH]2)CCCN1 [Example 4, 2-[(2S)-2-methylpyrrolidin-2-yl]-1H-benzimidazole-4-carboxamide]	8/10	4/10*	–	–	–	–	–
NC(=O)c1cccc2[nH]c(C3CCN(CCc4ccccc4)C3)nc12 (stereo not shown) [2-[1-(2-phenylethyl)pyrrolidin-3-yl]-1H-benzimidazole-4-carboxamide]	–	–	–	–	–	–	9.1 nM
NC(=O)c1cccc2[nH]c(C3CCN3)nc12 (stereo not shown) [2-azetidin-2-yl-1H-benzimidazole-4-carboxamide]	–	–	–	–	–	–	34 nM
